This note sets out measurements from PMC4111571 (Pharmaceutical research, 2012).

The nature of the data set: Caco-2 cell monolayer bidirectional transport study. It is filed as in vitro ADME. The conditions noted are these: human, Caco-2, pH 7.4.

SMILES strings stand for the structures.

In the case of `CC(C)NCC(O)COc1cccc2ccccc12` (stereo not drawn) [Propranolol], the Papp A→B at 2 h, 100 µM was 41.6 ± 2.4 ×10⁻⁶ cm/s; the Papp B→A at 2 h, 100 µM came out at 21.3 ± 0.7 ×10⁻⁶ cm/s; the efflux ratio at 2 h, 100 µM worked out at 0.51.
